Source: patent publication US7354904B2, “Bacteriocin inducer peptides” (priority 2005, dated 2008)

Columns and labels:
[1] = system: Enterococcus faecium LWP 50-52; experiment: Influence of signal peptide on bacteriocin 50-52 production, flask culture (fraction protein at 215 nm, activity by spot-test against C. jejuni and S. enteritidis); format: cell-based
[2] = system: Enterococcus faecium LWP 50-52; experiment: Bacteriocin 50-52 production with signal peptide under scaled-up cultivation (bioreactor); format: cell-based; conditions: LWP 50-52 + LWP-320, 0.22 mg peptide added after 2 hours of cultivation, about 12 hours
Procedure: The antagonistic activity of the bacteriocins produced when using the signal peptide and an inducer strain of bacteria against C. jejuni and S. enteritidis was assessed using a Spot Test. The steps included taking various concentrations of pure preparation (μg/ml) of the bacteriocin in approximately 10 microliters of volume plated onto blood-supplemented Campylobacter agar or Nutrient agar (MPA or Meta Peptone Agar) previously seeded with cells of target bacteria. Plates containing cultures of C. jejuni were grown at about 42° C., under microaerobic conditions. Plates containing S. enteritidis were grown at about 37° C. under aerobic conditions. Activity of the bacteriocin was expressed in arbitrary units (AU) per one milliliter of the preparation at which a visible zone of inhibition of the growth of culture appears (Henderson et al., Archives of Biochemistry and Biophysics, Volume 295, 5-12, 1992; herein incorporated by reference). Specific activity can also expressed as arbitrary units per milligram of pure bacteriocin.
Isolation of bacteriocin 50-52 involved two steps: (1) the isolation of bacteriocin from the supernatant of the culture fluid and (2) the isolation of bacteriocin from the precipitate of cells of both the inducing and the producing strains. In step 1, the cultures were harvested and separated by centrifugation at about 10,000×g for about 15 minutes to precipitate the cells. The supernatant was applied to an Octyl Sepharose 4 Fast Flow column to recover the bacteriocin using an elution buffer of about 20 mM K2HPO4 buffer, pH approximately 7.0. The cell precipitate from step 2 was suspended in phosphate buffer with about 0.7% NaCl, pH approximately 5.6 (elution buffer) and the suspension was mixed and incubated for about 20 minutes. After incubation, the suspension was centrifuged at about 10,000×g for about 15 minutes. The bacteriocin was isolated from the supernatant using ion-exchange chromatography on Superose SP Fast Flow using an elution buffer containing about 10 mM Tris HCl and about 125 mM NaCl, pH approximately 7.5. Antagonistic activities of the bacteriocin fractions against C. jejuni and S. enteritidis were assessed in a spot-test. The level of purity of bacteriocins was determined by SDS-PAGE. The isoelectric points of the fractions were determined using isoelectricfocusing. Concentrations of protein for all bacteriocin fractions were determined at approximately 215 nm using a spectrophotometric method.
To evaluate influence of the signal peptide on bacteriocin production under scaled-up cultivation, producing and inducing strains were grown in a V-6 liter bioreactor containing about 6 liters of medium. The ratio of concentrations of cultures and the signal peptide was maintained as in Table 5 for the conditions of 10% Brucella Broth, LWP 50-52, LWP 320, 0.01 mg/ml of LWP 50-52 signal peptide added after about 2 hours of cultivation. Isolation of bacteriocin 50-52 was performed at about 8, 10, 12, and 14 hours of cultivation as described above. The control contained 10% Brucella Broth, LWP 50-52, LWP-320, at a pH of approximately 6.9, at about 37° C., and about 150 rpm. The bacteriocin 50-52 was isolated after about 12 hours of cultivation. For the second condition, the conditions were the same except that approximately 0.22 mg of LWP 50-52 signal peptide was added after 2 hours of cultivation. Each condition was repeated three times.

[3] = LWP 50-52 + LWP 320, peptide 0.001 mg/ml
[4] = LWP 50-52 + LWP 320, peptide 0.001 mg/ml added after about 2 hours
[5] = LWP 50-52 + LWP 320, peptide 0.001 mg/ml added after about 4 hours
[6] = LWP 50-52 + LWP 320, peptide 0.001 mg/ml added after about 6 hours
[7] = LWP 50-52 + LWP 320, peptide 0.01 mg/ml
[8] = LWP 50-52 + LWP 320, peptide 0.01 mg/ml added after about 2 hours
[9] = LWP 50-52 + LWP 320, peptide 0.01 mg/ml added after about 4 hours
[10] = LWP 50-52 + LWP 320, peptide 0.01 mg/ml added after about 6 hours
[11] = LWP 50-52 + LWP 320, peptide 0.1 mg/ml
[12] = LWP 50-52 + LWP 320, peptide 0.1 mg/ml added after about 2 hours
[13] = LWP 50-52 + LWP 320, peptide 0.1 mg/ml added after about 4 hours
[14] = LWP 50-52 + LWP 320, peptide 0.1 mg/ml added after about 6 hours
[15] = LWP 50-52, no inducer, peptide 0.001 mg/ml
[16] = LWP 50-52, no inducer, peptide 0.001 mg/ml added after about 2 hours
[17] = LWP 50-52, no inducer, peptide 0.001 mg/ml added after about 4 hours
[18] = LWP 50-52, no inducer, peptide 0.001 mg/ml added after about 6 hours
[19] = LWP 50-52, no inducer, peptide 0.01 mg.ml added after about 4 hours
[20] = LWP 50-52, no inducer, peptide 0.01 mg.ml added after about 6 hours
[21] = LWP 50-52, no inducer, peptide 0.01 mg/ml
[22] = LWP 50-52, no inducer, peptide 0.01 mg/ml added after about 2 hours
[23] = LWP 50-52, no inducer, peptide 0.1 mg/ml
[24] = LWP 50-52, no inducer, peptide 0.1 mg/ml added after about 2 hours
[25] = LWP 50-52, no inducer, peptide 0.10 mg/ml added after about 4 hours
[26] = LWP 50-52, no inducer, peptide 0.10 mg/ml added after about 6 hours

Sequence: TNVTKSWWVLAGCNQVVASNCNCGNVKGLT (listed as Enterococcus faecium) [LWP 50-52 Signal Peptide, signal peptide isolated from Enterococcus faecium LWP 50-52, stimulates bacteriocin 50-52 production]
- Activity [1, 3]: 819,200 AU/ml
- Protein Concentration [1, 3]: 0.25 mg/mL
- Protein increase vs. Control [1, 3]: 1
- Specific Activity [1, 3]: 3,276,800 AU/mg
- mg protein/liter [1, 3]: 82.5 mg protein/liter
- Activity [1, 4]: 819,200 AU/ml
- Protein Concentration [1, 4]: 0.25 mg/mL
- Protein increase vs. Control [1, 4]: 1
- Specific Activity [1, 4]: 3,276,800 AU/mg
- mg protein/liter [1, 4]: 82.5 mg protein/liter
- Activity [1, 5]: 819,200 AU/ml
- Protein Concentration [1, 5]: 0.25 mg/mL
- Protein increase vs. Control [1, 5]: 1
- Specific Activity [1, 5]: 3,276,800 AU/mg
- mg protein/liter [1, 5]: 82.5 mg protein/liter
- Activity [1, 6]: 819,200 AU/ml
- Protein Concentration [1, 6]: 0.25 mg/mL
- Protein increase vs. Control [1, 6]: 1
- Specific Activity [1, 6]: 3,276,800 AU/mg
- mg protein/liter [1, 6]: 82.5 mg protein/liter
- Activity [1, 7]: 1,638,400 AU/ml
- Protein Concentration [1, 7]: 1.0 mg/mL
- Protein increase vs. Control [1, 7]: 4
- Specific Activity [1, 7]: 1,638,400 AU/mg
- mg protein/liter [1, 7]: 330.0 mg protein/liter
- Activity [1, 8]: 3,276,800 AU/ml
- Protein Concentration [1, 8]: 1.07 mg/mL
- Protein increase vs. Control [1, 8]: 4.28
- Specific Activity [1, 8]: 3,062,429 AU/mg
- mg protein/liter ([1]; LWP 50-52 + LWP 320, peptide 0.01 mg/ml added after about 2 hours, listed as LWP 320 Signal Peptide): 353.1 mg protein/liter
- mg protein/liter ([1]; LWP 50-52 + LWP 320, peptide 0.01 mg/ml added after about 2 hours, listed as signal peptide from LWP 50-52): about 353.1 mg protein/liter
- Activity [1, 9]: 1,638,400 AU/ml
- Protein Concentration [1, 9]: 1.0 mg/mL
- Protein increase vs. Control [1, 9]: 4
- Specific Activity [1, 9]: 1,638,400 AU/mg
- mg protein/liter [1, 9]: 330.0 mg protein/liter
- Activity [1, 10]: 1,638,400 AU/ml
- Protein Concentration [1, 10]: 1.0 mg/mL
- Protein increase vs. Control [1, 10]: 4
- Specific Activity [1, 10]: 1,638,400 AU/mg
- mg protein/liter [1, 10]: 330.0 mg protein/liter
- Activity [1, 11]: 819,200 AU/ml
- Protein Concentration [1, 11]: 0.25 mg/mL
- Protein increase vs. Control [1, 11]: 1
- Specific Activity [1, 11]: 3,276,800 AU/mg
- mg protein/liter [1, 11]: 82.5 mg protein/liter
- Activity [1, 12]: 819,200 AU/ml
- Protein Concentration [1, 12]: 0.25 mg/mL
- Protein increase vs. Control [1, 12]: 1
- Specific Activity [1, 12]: 3,276,800 AU/mg
- mg protein/liter [1, 12]: 82.5 mg protein/liter
- Activity [1, 13]: 819,200 AU/ml
- Protein Concentration [1, 13]: 0.25 mg/mL
- Protein increase vs. Control [1, 13]: 1
- Specific Activity [1, 13]: 3,276,800 AU/mg
- mg protein/liter [1, 13]: 82.5 mg protein/liter
- Activity [1, 14]: 819,200 AU/ml
- Protein Concentration [1, 14]: 0.25 mg/mL
- Protein increase vs. Control [1, 14]: 1
- Specific Activity [1, 14]: 3,276,800 AU/mg
- mg protein/liter [1, 14]: 82.5 mg protein/liter
- Activity [1, 15]: 819,200 AU/ml
- Protein Concentration [1, 15]: 0.25 mg/mL
- Protein increase vs. Control [1, 15]: 1
- Specific Activity [1, 15]: 3,276,800 AU/mg
- mg protein/liter [1, 15]: 82.5 mg protein/liter
- Activity [1, 16]: 819,200 AU/ml
- Protein Concentration [1, 16]: 0.25 mg/mL
- Protein increase vs. Control [1, 16]: 1
- Specific Activity [1, 16]: 3,276,800 AU/mg
- mg protein/liter [1, 16]: 82.5 mg protein/liter
- Activity [1, 17]: 819,200 AU/ml
- Protein Concentration [1, 17]: 0.25 mg/mL
- Protein increase vs. Control [1, 17]: 1
- Specific Activity [1, 17]: 3,276,800 AU/mg
- mg protein/liter [1, 17]: 82.5 mg protein/liter
- Activity [1, 18]: 819,200 AU/ml
- Protein Concentration [1, 18]: 0.25 mg/mL
- Protein increase vs. Control [1, 18]: 1
- Specific Activity [1, 18]: 3,276,800 AU/mg
- mg protein/liter [1, 18]: 82.5 mg protein/liter
- Activity [1, 19]: 819,200 AU/ml
- Protein Concentration [1, 19]: 0.27 mg/mL
- Protein increase vs. Control [1, 19]: 1.08
- Specific Activity [1, 19]: 3,034,074 AU/mg
- mg protein/liter [1, 19]: 89.1 mg protein/liter
- Activity [1, 20]: 819,200 AU/ml
- Protein Concentration [1, 20]: 0.27 mg/mL
- Protein increase vs. Control [1, 20]: 1.08
- Specific Activity [1, 20]: 3,034,074 AU/mg
- mg protein/liter [1, 20]: 89.1 mg protein/liter
- Activity [1, 21]: 819,200 AU/ml
- Protein Concentration [1, 21]: 0.27 mg/mL
- Protein increase vs. Control [1, 21]: 1.08
- Specific Activity [1, 21]: 3,034,074 AU/mg
- mg protein/liter [1, 21]: 89.1 mg protein/liter
- Activity [1, 22]: 819,200 AU/ml
- Protein Concentration [1, 22]: 0.31 mg/mL
- Protein increase vs. Control [1, 22]: 1.24
- Specific Activity [1, 22]: 2,642,580 AU/mg
- mg protein/liter [1, 22]: 102.3 mg protein/liter
- Activity [1, 23]: 819,200 AU/ml
- Protein Concentration [1, 23]: 0.25 mg/mL
- Protein increase vs. Control [1, 23]: 1
- Specific Activity [1, 23]: 3,276,800 AU/mg
- mg protein/liter [1, 23]: 82.5 mg protein/liter
- Activity [1, 24]: 819,200 AU/ml
- Protein Concentration [1, 24]: 0.27 mg/mL
- Protein increase vs. Control [1, 24]: 1.08
- Specific Activity [1, 24]: 3,034,074 AU/mg
- mg protein/liter [1, 24]: 89.1 mg protein/liter
- Activity [1, 25]: 819,200 AU/ml
- Protein Concentration [1, 25]: 0.27 mg/mL
- Protein increase vs. Control [1, 25]: 1.08
- Specific Activity [1, 25]: 3,034,074 AU/mg
- mg protein/liter [1, 25]: 89.1 mg protein/liter
- Activity [1, 26]: 819,200 AU/ml
- Protein Concentration [1, 26]: 0.26 mg/mL
- Protein increase vs. Control [1, 26]: 1.04
- Specific Activity [1, 26]: 3,150,769 AU/mg
- mg protein/liter [1, 26]: 85.8 mg protein/liter
- Activity [2]: 6,553,600 AU/ml
- Increase in the amount of protein vs. control [2]: 4
- Protein Concentration [2]: 2.4 mg/mL
- Specific Activity [2]: 2,730,665 AU/mg
- Amount of Protein/liter of medium ([2]; listed as LWP 50-52 signal Peptide): 360 mg
- Amount of Protein/liter of medium ([2]; listed as LWP 50-52 signal peptide): about 360 mg
